# Where two headings read alike, the source gives them in different places.
# Assays:
# [1] = test system: IL-23 stimulated Kit225 T cells (STAT-dependent luciferase reporter); test: Kit225 T cell assay, IL-23-stimulated STAT-dependent luciferase reporter; format: cell-based, human
# Description: (§1) Kit225 T cells with a stably-integrated STAT-dependent luciferase reporter were plated in RPMI (Gibco) containing 10% heat-inactivated FBS (Gibco) and 100 U/mL PenStrep (Gibco). The cells were then stimulated with either 20 ng/mL human recombinant IL-23 or 200 U/mL human recombinant IFNα (PBL InterferonSource) for 5-6 hours. Luciferase expression was measured using the STEADY-GLO® Luciferase Assay System (Promega) according to the manufacturer's instructions. Inhibition data were calculated by comparison to no inhibitor control wells for 0% inhibition and non-stimulated control wells for 100% inhibition.
# [2] = test system: IFNα stimulated Kit225 T cells (STAT-dependent luciferase reporter); test: Kit225 T cell assay, IFNα-stimulated STAT-dependent luciferase reporter; format: cell-based, human
# Description: as §1
# [3] = 20 ng/mL human recombinant IL-23, 5-6 hours, read-out: IL-23 Kit225 Reporter (IC50)
# [4] = 200 U/mL human recombinant IFNα, 5-6 hours, read-out: IFNα Kit225 Reporter (IC50)
# [5] = KIT225, 20 ng/mL human recombinant IL-23, 5-6 hours, read-out: IL-23 Kit225 Reporter (IC50)
# [6] = KIT225, 200 U/mL human recombinant IFNα, 5-6 hours, read-out: IFNα Kit225 Reporter (IC50)
SMILES,"IC50 [1, 3] [nM]","IC50 [2, 4] [nM]",other results
CNC(=O)c1nnc(NC(=O)C2CC2)cc1Nc1cccc(-c2ccn(C)n2)c1OC [Example 54],40,20,
CNC(=O)c1nnc(Nc2cc(C)nc(C)n2)cc1Nc1cccc(-c2nc(C)cs2)c1OC [Example 97],10,20,
CNC(=O)c1nnc(Nc2cc(COC)ccn2)cc1Nc1cccc(-c2ncn(C)n2)c1OC [Example 135],3.83,1.4,
CNC(=O)c1nnc(Nc2ccccn2)cc1Nc1cccc(-c2cscn2)c1OC [Example 132],20,20,
CNC(=O)c1nnc(Nc2ccnc(C)n2)cc1Nc1cccc(-c2ncn(C)n2)c1OC [Example 103],20,6.06,
CNC(=O)c1nnc(Nc2cc(C)c(F)cn2)cc1Nc1cccc(-c2nccs2)c1OC [Example 106],80,80,
CNC(=O)c1nnc(Nc2cc(OC)nc(C)n2)cc1Nc1ccccc1S(C)(=O)=O [Example 43],460,70,
CNC(=O)c1nnc(Nc2ccn(C)n2)cc1Nc1cccc(-c2ncccn2)c1OC [Example 111],30,10,
CNC(=O)c1nnc(Nc2ccccn2)cc1Nc1cccc(-c2nnnn2C)c1OC [Example 145],10,8.44,
CNC(=O)c1nnc(Nc2ccc(F)cn2)cc1Nc1cccc(-c2cnccn2)c1OC [Example 74],20,5.15,
CNC(=O)c1nnc(Nc2ccccn2)cc1Nc1cccc(C(=O)NCC(F)(F)F)c1OC [Example 171],50,130,
CNC(=O)c1nnc(Nc2cccc(C)n2)cc1Nc1ccccc1S(C)(=O)=O [Example 30],20,10,
CNC(=O)c1nnc(Nc2cc(OC)ccn2)cc1Nc1ccccc1S(C)(=O)=O [Example 38],170,100,
CNC(=O)c1nnc(Nc2cc(C)ncn2)cc1Nc1cccc(-c2ncccn2)c1OC [Example 119],10,7.37,
CNC(=O)c1nnc(Nc2cc(C(C)(C)O)ccn2)cc1Nc1cccc(-c2ncn(C)n2)c1OC [Example 120],60,10,
CNC(=O)c1nnc(Nc2cc(C)c(F)cn2)cc1Nc1cccc(-c2ccnn2C)c1OC [Example 197],290,260,
CNC(=O)c1nnc(Nc2cc(C)nc(C)n2)cc1Nc1cccc(-c2nnn(C)n2)c1OC [Example 144],10,3.15,
CCOc1ccnc(Nc2cc(Nc3cccc(-c4ncn(C)n4)c3OC)c(C(=O)NC)nn2)c1 [Example 127],30,20,
CNC(=O)c1nnc(Nc2cc(C)n(C)n2)cc1Nc1ccccc1S(C)(=O)=O [Example 24],60,50,
CNC(=O)c1nnc(Nc2cc(OC)ncn2)cc1Nc1ccccc1S(C)(=O)=O [Example 42],150,260,
CNC(=O)c1nnc(NC(=O)C2CC2)cc1Nc1cccc(-c2ncc(F)cn2)c1OC [Example 116],20,30,
[2H]C([2H])([2H])NC(=O)c1nnc(NC(=O)C2CC2)cc1Nc1cccc(-c2c[nH]nn2)c1OC [Example 192],,,"IC50 [1, 5]: 40 nM; IC50 [2, 6]: 30 nM"
CNC(=O)c1nnc(Nc2cc(C)c(F)cn2)cc1Nc1cccc(-c2cnn(C)c2)c1OC [Example 59],20,20,
CNC(=O)c1nnc(Nc2cc(C)n(C)n2)cc1Nc1cccc(-c2ncn(C)n2)c1OC [Example 60],10,3.38,

SMILES,"IC50 [1, 3] [nM]","IC50 [2, 4] [nM]",other results
CNC(=O)c1nnc(Nc2cccnn2)cc1Nc1cccc(-c2ncccn2)c1OC [Example 123],5.9,6.81,
CNC(=O)c1nnc(NC(=O)C2CC2)cc1Nc1ccccc1S(C)(=O)=O [Example 17],570,360,
CNC(=O)c1nnc(Nc2cc(COC)nc(C)n2)cc1Nc1ccccc1S(C)(=O)=O [Example 40],80,120,
CNC(=O)c1nnc(Nc2cc(C#N)ccn2)cc1Nc1ccccc1S(C)(=O)=O [Example 25],140,80,
[2H]C([2H])([2H])NC(=O)c1nnc(Nc2cc(C)c(F)cn2)cc1Nc1ccccc1S(C)(=O)=O [Example 1],,,"IC50 [1, 5]: 30 nM; IC50 [2, 6]: 20 nM"
CNC(=O)c1nnc(Nc2ccc(F)cn2)cc1Nc1cccc(-c2ccncn2)c1OC [Example 89],20,2.18,
CNC(=O)c1nnc(Nc2cc(C)n(C)n2)cc1Nc1cccc(-c2ccn(C)n2)c1OC [Example 93],50,10,
CNC(=O)c1nnc(Nc2cc(C(F)(F)F)ccn2)cc1Nc1ccccc1S(C)(=O)=O [Example 35],210,40,
CNC(=O)c1nnc(Nc2cc(OC(C)C)ncn2)cc1Nc1cccc(-c2ncn(C)n2)c1OC [Example 98],30,9.16,
CNC(=O)c1nnc(Nc2ccc(C)nn2)cc1Nc1cccc(-c2ncccn2)c1OC [Example 122],30,3.2,
CNC(=O)c1nnc(Nc2ccnc(C)n2)cc1Nc1cccc(-c2ncccn2)c1OC [Example 158],10,20,
CNC(=O)c1nnc(Nc2cc(C)n(C)n2)cc1Nc1cccc(-c2n[nH]c(C)n2)c1OC [Example 148],20,10,
CNC(=O)c1nnc(Nc2cc(C)nc(COC)n2)cc1Nc1ccccc1S(C)(=O)=O [Example 41],160,190,
CNC(=O)c1nnc(Nc2ccc(F)cn2)cc1Nc1cccc(-c2ncccn2)c1OC [Example 71],10,5.99,
CNC(=O)c1nnc(Nc2ccc(F)cn2)cc1Nc1cccc(-c2ccccn2)c1OC [Example 77],70,20,
CNC(=O)c1nnc(Nc2cc(C)ccn2)cc1Nc1ccccc1S(C)(=O)=O [Example 14],10,10,
[2H]C([2H])([2H])NC(=O)c1nnc(NC(=O)C2CC2)cc1Nc1cccc(-c2nc[nH]n2)c1OC [Example 173],,,"IC50 ([1]; Homo sapiens, KIT225, read-out: IL-23 Kit225 Reporter (IC50, nM)): 120 nM; IC50 ([2]; Homo sapiens, KIT225, read-out: IFNα Kit225 Reporter (IC50, nM)): 20 nM"
CNC(=O)c1nnc(Nc2cc(C)nc(C)n2)cc1Nc1cccc(-c2cnn(C)n2)c1OC [Example 137],10,6.92,
"[2H]C([2H])([2H])NC(=O)c1nnc(Nc2ccccn2)cc1Nc1cccc(-c2nc(C)no2)c1OC [Example 163, 4-((2-methoxy-3-(3-methyl-1,2,4-oxadiazol-5-yl)phenyl)amino)-N-trideutero-methyl-6-(pyridin-2-ylamino)pyridazine-3-carboxamide]",,,"IC50 [1, 5]: 40 nM; IC50 [2, 6]: 30 nM"
CNC(=O)c1nnc(Nc2cc(C)c(C)nn2)cc1Nc1ccccc1S(C)(=O)=O [Example 21],80,60,
CNC(=O)c1nnc(NC(=O)C2CC2)cc1Nc1ccccc1S(C)(=O)=O [Example 12],230,100,
CNC(=O)c1nnc(NC(=O)C2CC2)cc1Nc1cccc(-c2nnnn2C)c1OC [Example 143],40,140,
CNC(=O)c1nnc(Nc2cc(CO)ccn2)cc1Nc1cccc(-c2ncn(C)n2)c1OC [Example 110],80,20,
COc1c(Nc2cc(NC(=O)C3CC3)nnc2C(N)=O)cccc1-c1ncn(C)n1 [Example 201],20,4.13,

# Reference: patent publication US11021475B2, “Amide-substituted heterocyclic compounds useful as modulators of IL-12, IL-23 and/or IFN alpha responses” (Bristol-Myers Squibb Company, priority 2012, dated 2021)
